# Results: ChEMBL document CHEMBL5375989, “Pioneering 4,11-Dioxo-4,11-dihydro-1H-anthra[2,3-d]imidazol-3-ium Compounds as Promising Survivin Inhibitors by Targeting ILF3/NF110 for Cancer Therapy” (J Med Chem, 2023)
# Columns and labels:
# [1] = Selectivity index, ratio of IC50 for mouse L929 cells to IC50 for human A549 cells; type: toxicity; settings: L929 cells and A549 cells, read-out: Ratio IC50
# BXPC-3 = test: Antiproliferative activity against human BXPC-3 cells assessed as inhibition of cell growth measured after 48 hrs by MTT assay; type: functional, cell-based; settings: bxpc-3
# NCI-H460 = test: Antiproliferative activity against human NCI-H460 cells assessed as inhibition of cell growth measured after 48 hrs by MTT assay; type: functional, cell-based; settings: nci-h460
# NIH3T3 = test: Antiproliferative activity against mouse NIH3T3 cells assessed as inhibition of cell growth measured after 48 hrs by MTT assay; type: toxicity, cell-based; settings: nih3t3
# A549 [2] = test: Inhibition of colony formation in human A549 cells assessed as suppression of colony formation at 5 nM replaced with fresh medium for every 72 hrs and measured for 15 days by crystal violet staining based assay relative to control; type: functional; settings: A549, 360 h, time 15 day
# A549 [3] = test: Antiproliferative activity against survivin silenced human A549 cells assessed as inhibition of cell growth measured after 48 hrs by MTT assay; type: functional, cell-based; settings: A549, 48 h
# A549 [4] = test: Antiproliferative activity against human A549 cells assessed as inhibition of cell growth measured after 48 hrs in presence of scramble siRNA by MTT assay; type: functional, cell-based; settings: A549, 48 h
# A549 [5] = test: Antitumor activity against human A549 cells xenografted in BALB/c nude mouse assessed as inhibition of tumor growth at 4 mg/kg, sc administered every 2 days for 14 days relative to control; type: functional; set-up: scale not given: the % may be the effect or the level left; settings: time 14 day
# [6] = Drug uptake in Sprague-Dawley rat blood at 2 mg/kg measured after 24 hrs by UPLC-3Q analysis; type: ADME, organism-based; settings: in vivo
# [7] = Toxicity in BALB/c mouse assessed as morphological changes in heart at 2 to 4 mg/kg by H and E staining based analysis; type: organism-based; settings: in vivo, dose 2-4 mg/kg
# [8] = Toxicity in BALB/c mouse assessed as morphological changes in lung at 2 to 4 mg/kg by H and E staining based analysis; type: organism-based; settings: in vivo, dose 2-4 mg/kg
# [9] = Toxicity in BALB/c mouse assessed as morphological changes in kidney at 2 to 4 mg/kg by H and E staining based analysis; type: organism-based; settings: in vivo, dose 2-4 mg/kg
# A549 [10] = test: Induction of apoptosis in human A549 cells assessed as early apoptotic cells at 0.04 uM measured after 48 hrs by annexin V and PI staining based flow cytometry analysis (reference value: 0.71%); type: functional
# A549 [11] = test: Induction of apoptosis in human A549 cells assessed as early apoptotic cells at 0.25 uM measured after 48 hrs by annexin V and PI staining based flow cytometry analysis (reference value: 0.71%); type: functional
# A549 [12] = test: Induction of apoptosis in human A549 cells assessed as late apoptotic cells at 0.1 uM measured after 48 hrs by annexin V and PI staining based flow cytometry analysis (reference value: 4.70%); type: functional
# A549 [13] = test: Induction of apoptosis in human A549 cells assessed as necrotic cells at 0.04 uM measured after 48 hrs by annexin V and PI staining based flow cytometry analysis (reference value: 1.47%); type: functional
# 5637 = test: cells; settings: Homo sapiens, 5637, 48 h
# Description: Antiproliferative activity against human 5637 cells assessed as inhibition of cell growth measured after 48 hrs by MTT assay
compound,measurement,setting,value
Cn1c[n+](C)c2c1C(=O)c1cc3ccccc3cc1C2=O.[I-],selectivity ratio,[1],2390
same,IC50,BXPC-3,70 nM
same,IC50,NCI-H460,140 nM
same,IC50,NIH3T3,14000 nM
same,inhibition at 0.005 µM,A549 [2],100%
same,IC50,A549 [3],980 nM
same,IC50,A549 [4],9 nM
same,Activity,A549 [5],83.6%
same,Drug uptake,[6],Active
same,Activity,[7],Non-Toxic
same,Activity,[8],Non-Toxic
same,Activity,[9],Non-Toxic
same,Activity,A549 [10],6.08%
same,Activity,A549 [11],2.37%
same,Activity,A549 [12],81.9%
same,Activity,A549 [13],4.74%
same,IC50,5637,180 nM
